Patent US9062015B2, “Inhibitors of sphingosine kinase” (Merck Patent GmbH, priority 2009, dated 2015)

Target: SphK1 (Homo sapiens, UniProt Q9NYA1)
Assay: SphK1 kinase assay, 384-well flashplate (biochemical assay)
Conditions: IC50 ranges; 5 nM modified SphK1, 800 nM omega-biotinyl-D-erythro-sphingosine, 1 μM ATP, 30° C., 120 min; read-out: SphK1 Inhibition IC50
Description: Tests for the Inhibition of the SphK1 Activity
The kinase assay is carried out as a 384-well flashplate assay.
5 nM modified SphK1, 800 nM omega-biotinyl-D-erythro-sphingosine and 1 μM ATP (with 0.3 μCi of ^33P-ATP/well) are incubated in a total volume of 50 μl (25 mM HEPES, 5 mM MgCl2, 1 mM dithiothreitol, 0.01% of Brij35, 0.1% of BSA (fatty acid-free), pH 7.4) without or with test substance (5-10 concentrations) at 30° C. for 120 min. The reaction is terminated using 25 μl of 200 mM EDTA solution, filtered off with suction at room temperature after 30 min, and the cavities are washed 3 times with 100 μl of 0.9% NaCl solution. The non-specific proportion of the kinase reaction (blank) is determined using 0.5 mM NaCl. Radioactivity is measured in topcount. IC50 values are calculated using RS1.

Sequence of SphK1 (Q9NYA1 9-364 limits assumed): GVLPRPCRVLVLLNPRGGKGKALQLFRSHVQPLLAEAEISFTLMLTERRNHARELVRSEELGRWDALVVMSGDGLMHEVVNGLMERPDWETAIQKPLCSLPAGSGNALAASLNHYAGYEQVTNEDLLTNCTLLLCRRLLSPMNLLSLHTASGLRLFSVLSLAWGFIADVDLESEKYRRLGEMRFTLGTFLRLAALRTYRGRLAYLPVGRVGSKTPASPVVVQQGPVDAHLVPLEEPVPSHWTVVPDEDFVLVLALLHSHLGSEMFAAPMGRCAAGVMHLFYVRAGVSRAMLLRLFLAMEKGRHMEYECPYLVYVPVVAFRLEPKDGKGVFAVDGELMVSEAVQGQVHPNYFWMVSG

Row | Structure (SMILES) | IC50 [nM]
1 | CC1(C)CCC(C)(C)c2cc(-c3ccnc(N4CCN(CCCCO)CC4)c3)ccc21 | 100 to 1000
2 | CC1(C)CCC(C)(C)c2cc(-c3cc(N4CCN(CCCCO)CC4)ccn3)ccc21 | 100 to 1000
3 | CC1(C)CCC(C)(C)c2cc(-c3ncnc(N4CCC(N)CC4)n3)ccc21 | < 100
4 | CC1(C)CCC(C)(C)c2cc(-c3ccnc(N4CCNCC4)c3)ccc21 | 100 to 1000
5 | COCCOc1ccc(-c2ccc3c(c2)C(C)(C)CCC3(C)C)nc1N1CCNCC1 | > 1000
6 | CC1(C)CCC(C)(C)c2cc(-c3cccc(N4CCNCC4)n3)ccc21 [1-[6-(5,5,8,8-Tetramethyl-5,6,7,8-tetrahydronaphthalen-2-yl)pyridin-2-yl]piperazine] | 100 to 1000
7 | CC1(C)CCC(C)(C)c2cc(-c3cccc(N4CCNCC4)c3)ccc21 [1-[3-(5,5,8,8-Tetramethyl-5,6,7,8-tetrahydronaphthalen-2-yl)phenyl]-piperazine] | 100 to 1000
8 | CC1(C)CCC(C)(C)c2cc(-c3nccc(N4CCN(CCCO)CC4)n3)ccc21 | 100 to 1000
9 | CC1(C)CCC(C)(C)c2cc(-c3cc(N4CCNCC4)ccn3)ccc21 | 100 to 1000
10 | CC1(C)CCCc2cc(-c3cccc(N4CCNCC4)n3)ccc21 [1-[6-(5,5-Dimethyl-5,6,7,8-tetrahydronaphthalen-2-yl)pyridin-2-yl]-piperazine] | > 1000
11 | CC1(C)CCC(C)(C)c2cc(-c3cccc(N4CCN(C[C@@H](N)CO)CC4)n3)ccc21 | > 1000
12 | CC1(C)CC(C)(C)c2cc(-c3cccc(N4CCNCC4)n3)ccc21 [1-[6-(1,1,3,3-Tetramethylindan-5-yl)pyridin-2-yl]piperazine] | 100 to 1000
13 | CC1(C)CCC(C)(C)c2cc(-c3ncnc(N4CCC(N5CCCC(O)C5)CC4)n3)ccc21 (stereo not shown) [1′-[4-(5,5,8,8-Tetramethyl-5,6,7,8-tetrahydronaphthalen-2-yl)-1,3,5-triazin-2-yl]-1,4′-bipiperidinyl-3-ol] | 100 to 1000
14 | CC1(C)CCC(C)(C)c2cc(-c3cccc(N4CCN(CCCCO)CC4)c3)ccc21 | 100 to 1000
15 | C[C@H]1CN(c2cccc(-c3ccc4c(c3)C(C)(C)CCC4(C)C)c2)CCN1 | 100 to 1000
16 | CC1(C)CCC(C)(C)c2cc(-c3ncnc(N4CCC(N5CCC(N)C5)CC4)n3)ccc21 (stereo not shown) [1-{1-[4-(5,5,8,8-Tetramethyl-5,6,7,8-tetrahydronaphthalen-2-yl)-1,3,5-triazin-2-yl]piperidin-4-yl}pyrrolidin-3-ylamine] | 100 to 1000
17 | CC1(C)CCC(C)(C)c2cc(-c3cccc(N4CCN(CCCCCO)CC4)c3)ccc21 | < 100
18 | COCCOc1ccc(-c2ccc3c(c2)C(C)(C)CCC3(C)C)nc1N1CCN(CCCCCO)CC1 | > 1000
19 | CC1(C)CCC(C)(C)c2cc(-c3cccc(N4CCN(CCCCO)CC4)n3)ccc21 | < 100
20 | CC1(C)CCCc2ccc(-c3cccc(N4CCNCC4)n3)cc21 [1-[6-(8,8-Dimethyl-5,6,7,8-tetrahydronaphthalen-2-yl)pyridin-2-yl]-piperazine] | > 1000
21 | CC1(C)CCC(C)(C)c2cc(-c3cccc(N4CCN(CCCCCOC(=O)CN)CC4)c3)ccc21 | 100 to 1000
22 | CC1(C)CCC(C)(C)c2cc(-c3ncnc(N4CCN(CCCCCO)CC4)n3)ccc21 | < 100
23 | CC1(C)CCc2cc(-c3cccc(N4CCNCC4)n3)ccc21 [1-[6-(1,1-Dimethylindan-5-yl)pyridin-2-yl]piperazine] | > 1000
24 | Cc1ccc(-c2ccc3c(c2)C(C)(C)CCC3(C)C)cc1N1CCNCC1 | > 1000
25 | CC1(C)CCC(C)(C)c2cc(-c3cccc(N4CCN(CCCCCO)CC4)n3)ccc21 | < 100
26 | CC1(C)CCC(C)(C)c2cc(-c3cccc(N4CCC(N5CCC(N)C5)CC4)n3)ccc21 (stereo not shown) [1-[6′-(5,5,8,8-Tetramethyl-5,6,7,8-tetrahydronaphthalen-2-yl)-3,4,5,6-tetrahydro-2H-1,2′-bipyridinyl-4-yl]pyrrolidin-3-ylamine] | < 100

The remaining lines, values ahead:

Row | IC50 [nM] | Structure (SMILES)
27 | 100 to 1000 | CC1(C)CCC(C)(C)c2cc(-c3nccc(N4CCNCC4)n3)ccc21 [4-Piperazin-1-yl-2-(5,5,8,8-tetramethyl-5,6,7,8-tetrahydronaphthalen-2-yl)pyrimidine]
28 | 100 to 1000 | CC1(C)CC(C)(C)c2cc(-c3cccc(N4CCN(CCCCO)CC4)n3)ccc21 [4-{4-[6-(1,1,3,3-Tetramethylindan-5-yl)pyridin-2-yl]piperazin-1-yl}-butan-1-ol]
29 | 100 to 1000 | CC1(C)CCCc2cc(-c3cccc(N4CCN(CCCCCO)CC4)n3)ccc21 [5-{4-[6-(5,5-Dimethyl-5,6,7,8-tetrahydronaphthalen-2-yl)pyridin-2-yl]-piperazin-1-yl}pentan-1-ol]
30 | < 100 | CC1(C)CCC(C)(C)c2cc(-c3ncnc(N4CCC(NCCCCO)CC4)n3)ccc21 [4-{1-[4-(5,5,8,8-Tetramethyl-5,6,7,8-tetrahydronaphthalen-2-yl)-1,3,5-triazin-2-yl]piperidin-4-ylamino}butan-1-ol]
31 | > 1000 | CC1(C)CCCc2cc(-c3cccc(N4CCN(CCCO)CC4)n3)ccc21 [3-{4-[6-(5,5-Dimethyl-5,6,7,8-tetrahydronaphthalen-2-yl)pyridin-2-yl]-piperazin-1-yl}propan-1-ol]
32 | > 1000 | CC1(C)CCCc2ccc(-c3cccc(N4CCN(CCCCO)CC4)n3)cc21 [4-{4-[6-(8,8-Dimethyl-5,6,7,8-tetrahydronaphthalen-2-yl)pyridin-2-yl]-piperazin-1-yl}butan-1-ol]
33 | > 1000 | CC1(C)CCCc2ccc(-c3ncnc(N4CCNCC4)n3)cc21 [2-(8,8-Dimethyl-5,6,7,8-tetrahydronaphthalen-2-yl)-4-piperazin-1-yl-1,3,5-triazine]
34 | > 1000 | CC1(C)CCC(C)(C)c2cc(-c3cncc(N4CCNCC4)n3)ccc21 [6′-(5,5,8,8-Tetramethyl-5,6,7,8-tetrahydronaphthalen-2-yl)-3,4,5,6-tetrahydro-2H-1,2′-bipyrazinyl]
35 | < 100 | CC1(C)CCC(C)(C)c2cc(-c3ncnc(N4CCNCC4)n3)ccc21 [2-Piperazin-1-yl-4-(5,5,8,8-tetramethyl-5,6,7,8-tetrahydronaphthalen-2-yl)-1,3,5-triazine]
36 | > 1000 | CC1(C)CCCc2cc(-c3cccc(N4CCN(CCCCO)CC4)n3)ccc21 [4-{4-[6-(5,5-Dimethyl-5,6,7,8-tetrahydronaphthalen-2-yl)pyridin-2-yl]-piperazin-1-yl}butan-1-ol]
37 | > 1000 | CC1(C)CCCc2cc(-c3ncnc(N4CCNCC4)n3)ccc21 [2-(5,5-Dimethyl-5,6,7,8-tetrahydronaphthalen-2-yl)-4-piperazin-1-yl-1,3,5-triazine]
38 | 100 to 1000 | CC1(C)CCC(C)(C)c2cc(-c3cccc(N4CCC(N5CCCC(O)C5)CC4)n3)ccc21 (stereo not shown) [6″-(5,5,8,8-Tetramethyl-5,6,7,8-tetrahydronaphthalen-2-yl)-3,4,5,6,3′,4′,5′,6′-octahydro-2H,2′H-[1,4′;1′,2″]terpyridin-3-ol]
39 | < 100 | CC1(C)CCC(C)(C)c2cc(-c3cccc(N4CCC(NCCCCO)CC4)n3)ccc21 [4-[6′-(5,5,8,8-Tetramethyl-5,6,7,8-tetrahydronaphthalen-2-yl)-3,4,5,6-tetrahydro-2H-1,2′-bipyridinyl-4-ylamino]butan-1-ol]
40 | < 100 | CC1(C)CCC(C)(C)c2cc(-c3ncnc(N4CCN(CCCCO)CC4)n3)ccc21 [4-{4-[4-(5,5,8,8-Tetramethyl-5,6,7,8-tetrahydronaphthalen-2-yl)-1,3,5-triazin-2-yl]piperazin-1-yl}butan-1-ol]
41 | > 1000 | CC1(C)CCc2cc(-c3cccc(N4CCN(CCCCCO)CC4)n3)ccc21 [5-{4-[6-(1,1-Dimethylindan-5-yl)pyridin-2-yl]piperazin-1-yl}pentan-1-ol]
42 | > 1000 | CC1(C)CCCc2ccc(-c3cccc(N4CCN(CCCCCO)CC4)n3)cc21 [5-{4-[6-(8,8-Dimethyl-5,6,7,8-tetrahydronaphthalen-2-yl)pyridin-2-yl]-piperazin-1-yl}pentan-1-ol]
43 | 100 to 1000 | CC1(C)CCC(C)(C)c2cc(-c3cccc(N4CCN(CCCO)CC4)n3)ccc21 [3-{4-[6-(5,5,8,8-Tetramethyl-5,6,7,8-tetrahydronaphthalen-2-yl)-pyridin-2-yl]piperazin-1-yl}propan-1-ol]
44 | > 1000 | CC1(C)CCc2cc(-c3cccc(N4CCN(CCCCO)CC4)n3)ccc21 [4-{4-[6-(1,1-Dimethylindan-5-yl)pyridin-2-yl]piperazin-1-yl}butan-1-ol]
45 | 100 to 1000 | CC1(C)CCC(C)(C)c2cc(-c3cccc(N4CCC(N)CC4)n3)ccc21 [6′-(5,5,8,8-Tetramethyl-5,6,7,8-tetrahydronaphthalen-2-yl)-3,4,5,6-tetrahydro-2H-1,2′-bipyridinyl-4-ylamine]
46 | 100 to 1000 | CC1(C)CCC(C)(C)c2cc(-c3ccnc(N4CCNCC4)n3)ccc21 [2-Piperazin-1-yl-4-(5,5,8,8-tetramethyl-5,6,7,8-tetrahydronaphthalen-2-yl)pyrimidine]
47 | 100 to 1000 | CC1(C)CC(C)(C)c2cc(-c3cccc(N4CCN(CCCCCO)CC4)n3)ccc21 [5-{4-[6-(1,1,3,3-Tetramethylindan-5-yl)pyridin-2-yl]piperazin-1-yl}-pentan-1-ol]
48 | 100 to 1000 | CC1(C)CCC(C)(C)c2cc(-c3cccc(C4CCNCC4)n3)ccc21 [6-(5,5,8,8-Tetramethyl-5,6,7,8-tetrahydronaphthalen-2-yl)-1′,2′,3′,4′,5′,6′-hexahydro-2,4′-bipyridinyl]
49 | 100 to 1000 | CC1(C)CCC(C)(C)c2cc(-c3cccc(N4CCC(NCCCCCO)CC4)n3)ccc21 [5-[6′-(5,5,8,8-Tetramethyl-5,6,7,8-tetrahydronaphthalen-2-yl)-3,4,5,6-tetrahydro-2H-1,2′-bipyridinyl-4-ylamino]pentan-1-ol]
